For the assay, the target named is Histone deacetylase 4 (Homo sapiens, UniProt P56524). Briefly: Inhibition Assay: Human recombinant HDAC4 was expressed in full length form (aa 2-1084) in Sf9 insect cells (obtained from ATCC) using baculovirus generated with Bac-to-Bac system (Invitrogen). Test compounds were serially diluted to reach final test concentrations from 0.003 uM to 100 uM. HDAC4 and test compounds were incubated in 25 mM Tris buffer pH 8.0 containing 137 mM NaCl, 2.7 mM KCl, 1 mM MgCl2 and 0.05% (w/v) bovine serum albumine for 2 hours at room temperature in presence of 10 uM of acetyl-Gly-Ala-Lys(E-trifluoroacetyl)-AMC (AMC=7-amino-4-methyl coumarin) in a final volume of 200 ul. Control wells with HDAC4 only (positive control) and without HDAC4 (negative control) were included on the microplate. Bovine trypsin (10 ul of a 0.4 mg/ml solution) was added and the plate incubated for additional 15 minutes at room temperature. The plate was placed in a fluorescence microplate reader, and read at an excitation wavelength of 360 nm and an emission wavelength of 450 nm.

pIC50: −log10 of the molar value.

Histone deacetylase 4, sequence (P56524 whole entry, the tested form may be a part): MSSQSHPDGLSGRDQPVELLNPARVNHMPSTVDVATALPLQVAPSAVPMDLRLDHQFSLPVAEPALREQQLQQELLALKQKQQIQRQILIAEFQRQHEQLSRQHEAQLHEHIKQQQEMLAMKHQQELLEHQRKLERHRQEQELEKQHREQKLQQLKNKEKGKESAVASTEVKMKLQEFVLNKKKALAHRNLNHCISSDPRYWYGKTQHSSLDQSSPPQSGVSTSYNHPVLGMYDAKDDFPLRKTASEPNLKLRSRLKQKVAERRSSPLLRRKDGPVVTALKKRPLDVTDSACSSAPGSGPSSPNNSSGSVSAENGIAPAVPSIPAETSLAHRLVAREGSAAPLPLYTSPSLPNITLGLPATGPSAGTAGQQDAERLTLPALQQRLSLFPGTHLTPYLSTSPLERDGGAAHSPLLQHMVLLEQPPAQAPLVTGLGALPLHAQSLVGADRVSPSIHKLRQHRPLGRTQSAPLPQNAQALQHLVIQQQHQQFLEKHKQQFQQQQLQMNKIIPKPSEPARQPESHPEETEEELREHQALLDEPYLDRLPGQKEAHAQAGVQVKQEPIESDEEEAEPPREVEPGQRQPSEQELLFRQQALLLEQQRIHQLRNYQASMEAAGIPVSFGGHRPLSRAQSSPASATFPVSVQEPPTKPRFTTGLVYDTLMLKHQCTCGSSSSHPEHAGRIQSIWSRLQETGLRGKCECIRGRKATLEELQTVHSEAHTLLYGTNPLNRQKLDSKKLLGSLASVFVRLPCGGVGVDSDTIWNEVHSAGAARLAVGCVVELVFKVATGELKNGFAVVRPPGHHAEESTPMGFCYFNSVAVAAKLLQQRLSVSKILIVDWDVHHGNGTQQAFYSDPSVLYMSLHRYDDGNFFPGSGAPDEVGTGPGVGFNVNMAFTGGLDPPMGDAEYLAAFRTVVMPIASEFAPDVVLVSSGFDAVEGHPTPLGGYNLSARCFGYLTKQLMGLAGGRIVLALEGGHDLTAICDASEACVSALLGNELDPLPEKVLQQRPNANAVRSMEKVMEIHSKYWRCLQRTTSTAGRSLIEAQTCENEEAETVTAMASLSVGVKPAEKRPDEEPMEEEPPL

On to `CCN(C)C[C@@H](C)NC(=O)c1ccc(-c2noc(C(F)(F)F)n2)cc1F`, for which the pIC50 was 7.14.

The pIC50 is −log10 of the IC50, conventionally taken in molar units.

The values are drawn from ChEMBL document CHEMBL3638656, “Trifluoromethyl-oxadiazole derivatives and their use in the treatment of disease” (2015).
